The values that follow come from patent publication US6482827B1, “Matrix metalloproteinase inhibitors” (Pharmacia & Upjohn S.p.A., priority 1997, dated 2002).

Series [1] concerns the target T1, Human collagenase (MMP-1) (Homo sapiens, UniProt P03956).
T1 sequence (P03956 101-269): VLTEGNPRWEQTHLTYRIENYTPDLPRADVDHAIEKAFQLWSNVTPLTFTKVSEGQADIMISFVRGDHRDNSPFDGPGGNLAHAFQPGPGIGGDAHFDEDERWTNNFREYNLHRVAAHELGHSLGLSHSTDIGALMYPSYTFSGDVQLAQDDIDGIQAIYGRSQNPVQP
Briefly: Biochemical assay (Protocol A), Ki at steady state, MMP-1. The conditions noted are these: preincubation, 37° C., pH=7.4, read-out: Ki at steady state (Ki*) for inhibition of MMP-1. As for the experimental part:
(§1) Human gelatinase-A (MMP-2) was obtained as pro-enzyme (72 kDa) and was activated with 1 mM 4-aminophenylmercuric acetate for 30 min at 37° C. immediately prior to use. Human stromelysin-1-255 (MMP-3) was obtained as a recombinant pro-enzyme isolated from E. coli and activated by heat (1 h, 55° C.).
(§2) The substrate was the commercial quenched-fluorescence peptide Mca-Pro-Leu-Gly-Leu-Dpa-Ala-Arg-NH2, that is (7-methoxycoumarin4-yl)Acetyl-Pro-Leu-Glv-Leu-(3-[2,4-dinitrophenyl]-L-2,3-diamino-propionyl)-Ala-Arg-NH2 (C. G. Knight et al., FEBS Lett.296:263, 1992). The enzymes cleave at the Gly-Leu bond, removing the internally quenching Dpa group. Release of the highly fluorescent peptide Mca-Pro-Leu was followed fluorimetrically at 37° C. using a Perkin Elmer LS-50 Fluorescence Spectrophotometer fitted with a thermostatted four position stirring cell changer. The excitation wavelength was set at 326 nm (bandwidth 5 nm) and the emission at 392 nm (bandwidth 20 nm). Km values of this substrate for the three MMP's is 70 μM or more (Knight et al., reference above). Substrate concentration was 2 μM in the tests, so that we could approximate to unit the term (1+[substrate]/KM) in calculations. The substrate was stable for over 60 minutes in the assay conditions, giving no appreciable increment of fluorescence. Full response was adjusted against 200 nM Mca-Pro-Leu-OH (the released fluorescent peptide) and the instrument was calibrated in the range 0-100 nM Mca-Pro-Leu-OH, corresponding to 0-5% extent of hydrolysis of the 2 μM substrate. The aqueous assay buffer was 50 mM Tris/HCl pH=7.4 containing 0.15 M NaCl, 10 mM CaCl2, 0.01 mM ZnCl2 and 0.05% Brij 35. The concentration of the activated enzyme was determined by titration against representative inhibitors described in the literature and synthesized in house: Roche Ro31-9790 (N. G. Knebel et al., J. Chromatogr. B 673:213, 1995) for MMP-1, and Celltech CT-1418 (compound 1 in S. K. Chander, J. Pharm. Sci. 84:404, 1995) for MMP-2 and MMP-3. Enzyme concentrations in the tests were set at 1.0 nM for MMP-1, 0.04 nM for MMP-2, and 3.0 nM for M-3. Under our assay conditions, we measured keat/KM values of 26900, 669000 and 9740 1/(M×s) for MMP-1, MMP-2 and MMP-3, respectively. All the three enzymes were found stable for over three hours in the assay conditions.
(§3) The inhibition constant for compounds of the present invention was measured at steady state (Ki*; see J. F. Morrison and C. T. Walsh, Adv. Enzymol. Relat. Areas Mol. Biol. 61:201, 1988), upon preincubation experiment, by measuring V0, the initial rate in the absence of inhibitor, and Vs, the steady-state velocity, at different concentrations of inhibitors in the region of their enzyme-inhibitor dissociation constants.
(§4) On a routine basis, 1.94 mL of assay buffer was pre-heated at 37° C. in a vial, 0.02 mL of inhibitor in DMSO (or DMSO only), and 0.02 ml of 100 nM MMP-1 or 4 nM MMP-2 or 300 nM MMP-3 were added, mixed, and the vial was held at 37° C. for 5-180 minutes. Then 0.02 ml of 0.2 mM substrate was added, mixed and transferred into a pre-heated cell. The sample was allowed to equilibrate in the cuvette for 3-5 min at 37° C. against small changes in temperature and changes in the enzyme-inhibitor equilibria related to addition of substrate. After that, the linear increase of fluorescence was monitored over 3-5 min, and the slope (Vo or Vs) was obtained. Inhibitor concentrations were varied to collect data over Vs/Vo ratio ranging from 0.05 to 0.95. The values of Ki* were calculated by nonlinear weighted regression to the tight-binding equation according to Morrison and Walsh above:
(§5) Vs/Vo=[1/(2×Et)]×SQR[(Ki*+It−Et)^2+4×Ki*×Et]−(Ki*+It−Et)
(§6) wherein Et is the total enzyme concentration, and It is the total inhibitor concentration. The following Table I lists Ki* obtained for some representative examples: […]

The target in series [2] is T2, Human gelatinase-A (MMP-2) (Homo sapiens, UniProt P08253).
T2 sequence (P08253 110-660): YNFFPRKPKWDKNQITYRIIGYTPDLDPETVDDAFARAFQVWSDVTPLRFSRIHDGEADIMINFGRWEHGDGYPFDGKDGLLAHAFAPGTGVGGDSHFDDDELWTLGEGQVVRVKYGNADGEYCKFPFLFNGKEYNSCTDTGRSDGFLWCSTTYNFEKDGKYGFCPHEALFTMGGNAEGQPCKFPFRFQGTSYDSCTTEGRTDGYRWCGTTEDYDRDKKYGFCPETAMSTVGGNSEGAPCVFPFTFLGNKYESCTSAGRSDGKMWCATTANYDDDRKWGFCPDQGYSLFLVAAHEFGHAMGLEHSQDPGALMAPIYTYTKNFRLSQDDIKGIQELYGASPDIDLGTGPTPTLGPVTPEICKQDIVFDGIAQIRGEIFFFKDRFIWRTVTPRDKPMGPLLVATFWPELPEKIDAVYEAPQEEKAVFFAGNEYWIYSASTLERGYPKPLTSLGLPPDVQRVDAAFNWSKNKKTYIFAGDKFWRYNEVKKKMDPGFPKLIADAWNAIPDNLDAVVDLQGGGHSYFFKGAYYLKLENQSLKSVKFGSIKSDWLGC
Briefly: Biochemical assay (Protocol A), Ki at steady state, MMP-2. Conditions: preincubation, 37° C., pH=7.4, read-out: Ki at steady state (Ki*) for inhibition of MMP-2. The procedure: as §1, §2, §3, §4, §5, §6

Series [3] has as its target T3, Human stromelysin-1-255 (MMP-3) (Homo sapiens, UniProt P08254).
T3 construct: host or cells: E. coli
Briefly: Biochemical assay (Protocol A), Ki at steady state, MMP-3. Conditions: preincubation, 37° C., pH=7.4, read-out: Ki at steady state (Ki*) for inhibition of MMP-3. The procedure:
as §1, §2, §3, §4, §5, §6

A short description of series [4]: PK parameters in rats, iv route. The conditions noted are these: rat, in vivo, 10-15 mg/kg. The procedure: As a further example, Table 3 reports clearance and AUC values measured after intravenous administration to rats of a […] of some representative compounds of the present invention.
Series [5] in a line: PK parameters, oral route, rat. It counts as in vivo. Conditions: 10-15 mg/kg; for bioavailability: read-out: % F (oral bioavailability). As for the experimental part: (§7) As an additional example, Table 4 reports the maximum plasma concentration (Cmax) and oral bioavailability (% F; calculated from dose-normalised ratio of oral to i.v. mean AUC values) after oral administration to rats or cynomolgus monkeys of a […] of some representative compounds of the present invention.

A short description of the next series: Aqueous solubility. Type of series: physicochemical. Conditions: water, 25° C.
The nature of series [6]: PK parameters, oral route, cynomolgus monkey. It counts as in vivo. The conditions noted are these: 10-15 mg/kg. The procedure: as §7
Another series deals with stifle joints. Briefly: Animal model of tolerability with MMP inhibitors, histological evaluation of stifle joints. It counts as in vivo. The conditions noted are these: rats, intraperitoneal, 10 consecutive days, daily doses of 150 mg/kg or less. From the text: Although MMPs have been recognized as drug targets for at least 20 years, and potent MMP inhibitors described by formula (A) have been disclosed since 1986 or before (e.g., see J. P. Dickens et al., U.S. Pat. No. 4,599,361), no drug of this type has arrived at the market yet. This is not because of questions about the therapeutic potential of MMP inhibitors, but because of problems of “peptide-based hydroxamates”, such as aqueous solubility, metabolic stability, and other desirable properties, oral bioavailability in particular (e.g., J. R. Porter, reference above; J. Hodgson, “Remodelling MMPIs”, Biotechnology 13:554-557, 1995). For example, it is well known that most “peptide-based hydroxamates” of general formula (A) are rapidly glucuronidated, oxidized to the carboxylic acid, and excreted in the bile (e.g., see J. Singh et al., Bioorg. Med. Chem. Lett. 5:337-342, 1995, and other references above). Finally, another type of problem of the known inhibitors described by general formula (A) may be one of tolerability. […] We have extended these observations by developing an animal model of tolerability with MMP inhibitors (S. Castellino et al., unpublished), involving intraperitoneal administration of the latter in rats for 10 consecutive days, and histological evaluation of stifle joints at the end of treatment. […]

The conditions of series [7]: clinic; cited from earlier work.
The mark [8] stands for this setting: plasma, dose-normalised ratio of oral to i.v. mean AUC.
The mark [9] stands for this setting: dose-normalised ratio of oral to i.v. mean AUC.

In brackets after ≈: the same amount, converted by molar mass. A value given as a limit tells only on which side of the number the result lay.

T3 sequence (P08254 100-255 limits assumed): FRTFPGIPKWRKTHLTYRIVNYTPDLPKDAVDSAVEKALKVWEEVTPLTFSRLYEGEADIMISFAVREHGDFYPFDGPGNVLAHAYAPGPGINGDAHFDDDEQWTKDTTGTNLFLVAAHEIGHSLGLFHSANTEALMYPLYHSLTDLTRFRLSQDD

For `CC(C)C[C@@H](C(=O)N1CCOCC1)[C@H](N)C(=O)NO` [Example 10, (3S-Amino-4-hydroxyamino-2R-isobutyl)succinyl-morpholinamide], the Ki in [1] worked out at 180 nM; in series [2], 340 nM; in series [3], 2200 nM. Also, the area under the curve (AUC) in series [4] was 11100 ng·h/mL. For the same compound, the clearance in series [4] stood at 24 mL/min/kg. For the same compound, in series [5] (setting [8]), the bioavailability came to 28%. Also, the peak concentration (Cmax) in series [5] (plasma, read-out: Cmax) amounted to 2120 ng/mL.
Regarding `Cc1ccc(S(=O)(=O)N[C@H](C(=O)NO)[C@@H](CC(C)C)C(=O)N2CCOCC2)cc1` [Example 12, (4-Hydroxyamino-2R-isobutyl-3S-(4-toluenesulfonyl)amino)succinyl-morpholinamide], the Ki in series [1] worked out at 41 nM; in series [2], 190 nM; in series [3] it was 380 nM. In [4], the AUC is 6580 ng·h/mL. Further, the clearance in series [4] was 39 mL/min/kg. Moreover, the bioavailability in series [5] (setting [8]) came out at 21%. In series [5] (plasma, read-out: Cmax), the maximum concentration (Cmax) turned out to be 2440 ng/mL.
On to `COc1ccc(CCC[C@@H](C(=O)N2CCOCC2)[C@@H](C(=O)NO)N(C)C)cc1` [Example 19, (3S-N,N-Dimethylamino-4-hydroxyamino-2R-(4-methoxy)phenpropyl)succinyl-morpholinamide], for which the Ki worked out at 4500 nM in [1], 230 nM in series [2] and 1100 nM in series [3]. Moreover, in the series “Aqueous solubility” (Conditions A), the concentration in solution (solubility) was 7500 µg/mL (≈ 19.1 mM). The compound further had an AUC in series [4] of 9380 ng·h/mL. In addition, the clearance in series [4] is 27 mL/min/kg.
As for `N[C@H](C(=O)NO)[C@@H](CC1CCCC1)C(=O)N1CCCCC1` [Example 22, (3S-Amino-2R-cyclopentylmethyl-4-hydroxyamino)succinyl-piperidinamide], the Ki in [1] is 15 nM; in series [2], 67 nM; in series [3] it was 730 nM. Besides, in “Aqueous solubility” (Conditions B), the solubility was more than 8200 µg/mL. Besides, the bioavailability in series [5] (setting [8]) came out at 62%. The Cmax in series [5] (plasma, read-out: Cmax) was determined as 5490 ng/mL.
Turning to `N[C@H](C(=O)NO)[C@@H](CC1CCCC1)C(=O)N1CCN(Cc2ccc3c(c2)OCO3)CC1` [Example 27, (3S-Amino-2R-cyclopentylmethyl-4-hydroxyamino)succinyl-(4-piperonyl)piperazinamide], the Ki was 6.5 nM in series [1], 20 nM in series [2] and 240 nM in series [3]. The compound also came in with a solubility in the series “Aqueous solubility” (Conditions B) of 7100 µg/mL (≈ 16.4 mM). Further, the AUC in series [4] was 11300 ng·h/mL. Further, the clearance in series [4] came to 23 mL/min/kg. The bioavailability in series [5] (setting [8]) is 58%; in [6] (plasma, dose-normalised ratio of oral to i.v. mean AUC, read-out: % F (oral bioavailability)), 34%. For the same compound, the Cmax in series [5] (plasma, read-out: Cmax) was 7910 ng/mL; in series [6] (plasma, read-out: Cmax), 3130 ng/mL.
With `C[C@@H](NC(=O)[C@H](CC1CCCC1)[C@H](N)C(=O)NO)C1CCCCC1` [Example 50, (3S-Amino-2R-cyclopentylmethyl-4-hydroxyamino)succinyl-(1R-cyclohexylethyl)amide], the inhibition constant (Ki) in series [1] turned out to be 26 nM; in series [2], 58 nM; in series [3], 490 nM. In addition, the maximum concentration (Cmax) in series [5] came out at 3146 ng/mL; in series [6], 49516 ng/mL. Moreover, the “% F (oral bioavailability)” value in series [5] (setting [9]) was 50%; in series [6] (setting [9]) it was 70%.
On to `CNC(=O)[C@@H](NC(=O)[C@@H](CC(=O)NO)CC(C)C)C(C)(C)C` [Ro31-9790], for which the “Histological findings in stifle joints” value with stifle joints was “hypertrophic fibrosis of stifle ligaments, interstitial hypertrophic fibrosis of skeletal muscles, hypertrophic fibroplasia of the periostium and synovium, and chondrosysplasia and decreased endochondrial ossification of the ephyseal plate”.
In the case of `CNC(=O)[C@@H](NC(=O)[C@H](CC(C)C)[C@H](O)C(=O)NO)C(C)(C)C` [marimastat], the Tolerability in humans entry in [7] is “muscoloskeletal problems”.
